Literature values as cited in patent US11464797B2, “Use of vitamin composition in preparing drug for preventing, treating, or delaying Alzheimer's disease” (Zensun (Shanghai) Science & Technology, Co., Ltd., priority 2017, dated 2022).

How the values were obtained:
ATP level in CA1 area = settings: after 10 min of hypoxia in rats, magnesium ion treated brain slices; untreated 16% of normal
[1] = system: patients with mild cognitive impairment (MCI); settings: long-term intake (6-48 months)

Compound | ATP level, of normal brain slices (ATP level in CA1 area) [%] | cognitive function [1]
[Mg+2] [magnesium ion, magnesium] | 32 | –
vitamin E | – | effectively improve cognitive function
